Measured values reported in ChEMBL document CHEMBL1201862, “PubChem BioAssay data set” (2004).
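Results reflect a 48-hour exposure of cells in 96-well plates to compound at five concentrations. GI50: concentration for 50% inhibition of growth.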 Activity calls are given as the source filed them. Rule as the data show it: active = GI50 up to about 1.1 µM and inactive = higher.

Key:
Assay in all cases: NCI-60 cell line screen, 48 h
U-251 = tested on: U-251
NCI-H460 = tested on: NCI-H460
A498 = tested on: A498
IGROV-1 = tested on: IGROV-1
786-0 = tested on: 786-0
KM12 = tested on: KM12
SK-MEL-5 = tested on: SK-MEL-5
OVCAR-3 = tested on: OVCAR-3
ACHN = tested on: ACHN
SW-620 = tested on: SW-620
NCI-H226 = tested on: NCI-H226
SF-539 = tested on: SF-539
CAKI-1 = tested on: CAKI-1
NCI-H522 = tested on: NCI-H522
MOLT-4 = tested on: MOLT-4
LOX IMVI = tested on: LOX IMVI
SF-295 = tested on: SF-295
EKVX = tested on: EKVX
SR = tested on: SR
OVCAR-8 = tested on: OVCAR-8

Measured: GI50

COc1ccc2c(c1)CCCN2CCCCCCCCCCN(CCC(C)C)CCC(C)C
inactive: U-251 13.2 µM | NCI-H460 11.2 µM | A498 16.7 µM | IGROV-1 12.2 µM | 786-0 14.2 µM | KM12 4.55 µM | SK-MEL-5 6.46 µM | OVCAR-3 4.79 µM | ACHN 10.9 µM | SW-620 12.6 µM | NCI-H226 14 µM | SF-539 3.39 µM | CAKI-1 14.7 µM | NCI-H522 2.2 µM | MOLT-4 5.58 µM | LOX IMVI 12.4 µM | SF-295 14.1 µM | EKVX 6.44 µM

COc1cc2c(cc1OC)C(=O)/C(=C/c1ccc(N(C)C)cc1)CC2
inactive: SR > 10 µM | U-251 > 10 µM | NCI-H460 > 10 µM | IGROV-1 > 10 µM | 786-0 > 10 µM | KM12 > 10 µM | SK-MEL-5 > 10 µM | OVCAR-8 > 10 µM | OVCAR-3 > 10 µM | ACHN > 10 µM | SW-620 > 10 µM | NCI-H226 > 10 µM | SF-539 > 10 µM | CAKI-1 > 10 µM | MOLT-4 > 10 µM | LOX IMVI > 10 µM | SF-295 > 10 µM | EKVX > 10 µM

CC(C)OP(=O)(OC(C)C)c1nc(-c2ccccc2)n(-c2ccc([N+](=O)[O-])cc2)n1
inactive: U-251 > 100 µM | NCI-H460 > 100 µM | A498 > 100 µM | IGROV-1 > 100 µM | KM12 > 100 µM | SK-MEL-5 > 100 µM | OVCAR-8 > 100 µM | OVCAR-3 > 100 µM | ACHN > 100 µM | SW-620 > 100 µM | NCI-H226 31.3 µM | SF-539 > 100 µM | CAKI-1 > 100 µM | NCI-H522 98.9 µM | MOLT-4 > 100 µM | SF-295 > 100 µM | EKVX > 100 µM

CCOC(=O)c1csc(NC(=O)C(C)N2CCCC2)n1 (stereo not given)
inactive: U-251 > 100 µM | NCI-H460 > 100 µM | A498 > 100 µM | IGROV-1 > 100 µM | KM12 > 100 µM | SK-MEL-5 > 100 µM | OVCAR-8 > 100 µM | OVCAR-3 > 100 µM | ACHN > 100 µM | SW-620 > 100 µM | SF-539 > 100 µM | CAKI-1 > 100 µM | LOX IMVI > 100 µM | SF-295 > 100 µM

O=c1[nH]c(C2CCCCC2)nc2ccc(Cl)cc12
inactive: SR > 100 µM | U-251 > 100 µM | IGROV-1 41.3 µM | 786-0 > 100 µM | KM12 > 100 µM | SK-MEL-5 > 100 µM | OVCAR-8 > 100 µM | OVCAR-3 > 100 µM | ACHN > 100 µM | SW-620 > 100 µM | NCI-H226 > 100 µM | SF-539 > 100 µM | MOLT-4 > 100 µM | SF-295 > 100 µM | EKVX > 100 µM

COc1ccc(/C(Cl)=C(\C=O)c2ccc(Cl)c(Cl)c2)cc1
inactive: U-251 5.66 µM | NCI-H460 5.25 µM | A498 20.4 µM | IGROV-1 17 µM | SK-MEL-5 13 µM | OVCAR-8 5.57 µM | OVCAR-3 17.9 µM | ACHN 7.26 µM | SW-620 4.53 µM | NCI-H226 13.2 µM | SF-539 10.2 µM | CAKI-1 9.12 µM | NCI-H522 2.51 µM | MOLT-4 2.6 µM | LOX IMVI 3.72 µM | SF-295 9.12 µM | EKVX 17.1 µM

Cc1ccc(P(c2ccc(C)cc2)c2ccc(C)cc2)cc1
inactive: U-251 14.3 µM | NCI-H460 12.9 µM | A498 27.1 µM | IGROV-1 18.8 µM | KM12 15.8 µM | SK-MEL-5 16.6 µM | OVCAR-8 18 µM | OVCAR-3 15.7 µM | ACHN 23.2 µM | SW-620 26.2 µM | SF-539 21.6 µM | CAKI-1 23.2 µM | NCI-H522 11.4 µM | MOLT-4 16.5 µM | LOX IMVI 14.9 µM | SF-295 21.4 µM | EKVX 28.3 µM

O=C(Nc1ccc(F)cc1)c1cc2c(cc1Cl)Sc1nccn1S2(=O)=O
inactive: U-251 16.3 µM | NCI-H460 33.5 µM | A498 23.7 µM | IGROV-1 > 100 µM | 786-0 28.2 µM | KM12 > 100 µM | SK-MEL-5 14.9 µM | OVCAR-8 85.9 µM | OVCAR-3 84.5 µM | ACHN 63.1 µM | SW-620 > 100 µM | NCI-H226 > 100 µM | SF-539 37 µM | CAKI-1 30.7 µM | NCI-H522 76.9 µM | MOLT-4 > 100 µM | LOX IMVI > 100 µM | SF-295 28.9 µM | EKVX > 100 µM

O=C(NCCCOC(=O)CCCCCCCCC(=O)OCCCNC(=O)NC(=O)c1c[nH]c(=O)[nH]c1=O)NC(=O)c1c[nH]c(=O)[nH]c1=O
inactive: U-251 > 100 µM | NCI-H460 > 100 µM | A498 > 100 µM | IGROV-1 > 100 µM | 786-0 > 100 µM | KM12 > 100 µM | SK-MEL-5 > 100 µM | OVCAR-8 > 100 µM | OVCAR-3 > 100 µM | ACHN > 100 µM | SW-620 > 100 µM | SF-539 > 100 µM | CAKI-1 > 100 µM | MOLT-4 > 100 µM | LOX IMVI > 100 µM | SF-295 > 100 µM | EKVX > 100 µM

COC(=O)C1CCCN1C(=O)OC(C)(C)C (stereo not given)
inactive: SR > 100 µM | U-251 > 100 µM | NCI-H460 > 100 µM | IGROV-1 > 100 µM | 786-0 > 100 µM | KM12 > 100 µM | SK-MEL-5 > 100 µM | OVCAR-3 > 100 µM | ACHN > 100 µM | SW-620 > 100 µM | NCI-H226 > 100 µM | CAKI-1 > 100 µM | MOLT-4 23.3 µM | LOX IMVI > 100 µM | SF-295 > 100 µM | EKVX > 100 µM

CC1NCCc2c1[nH]c1cc(O)ccc21 (stereo not given)
inactive: NCI-H460 > 100 µM | A498 > 100 µM | IGROV-1 > 100 µM | 786-0 > 100 µM | KM12 > 100 µM | SK-MEL-5 > 100 µM | OVCAR-8 > 100 µM | OVCAR-3 > 100 µM | ACHN > 100 µM | SW-620 > 100 µM | NCI-H226 > 100 µM | SF-539 > 100 µM | CAKI-1 > 100 µM | MOLT-4 > 100 µM | LOX IMVI > 100 µM | SF-295 > 100 µM | EKVX > 100 µM

Nc1nc(O)c2ncn(C3OC(CO)C(O)C3O)c2n1 (stereo not given)
inactive: U-251 16.1 µM | A498 3.81 µM | IGROV-1 > 77.4 µM | KM12 80 µM | SK-MEL-5 53.6 µM | OVCAR-3 23.2 µM | SW-620 76.7 µM | NCI-H226 72.6 µM | SF-539 13.8 µM | CAKI-1 77.1 µM | NCI-H522 41.9 µM | MOLT-4 48.2 µM | LOX IMVI 52.5 µM | SF-295 71.6 µM | EKVX 10.2 µM

COC1CC(OC2CCC3(C)C(=CCC4C3C(OC(C)=O)C(OC(=O)CC(C)C)C3(C)C(C(C)=O)CCC43O)C2)OC(C)C1OC1CC(OC)C(OC2CC(OC)C(OC3OC(C)C(OC4OC(CO)C(O)C(O)C4O)C(OC)C3O)C(C)O2)C(C)O1 (stereo not given)
inactive: U-251 > 75 µM | NCI-H460 > 7.5 µM | A498 > 75 µM | IGROV-1 > 75 µM | 786-0 > 75 µM | KM12 > 75 µM | SK-MEL-5 > 75 µM | OVCAR-8 > 75 µM | OVCAR-3 > 75 µM | ACHN > 75 µM | SW-620 > 75 µM | NCI-H226 > 75 µM | SF-539 > 75 µM | CAKI-1 > 75 µM | NCI-H522 > 75 µM | MOLT-4 > 75 µM | LOX IMVI > 75 µM | SF-295 > 75 µM | EKVX > 75 µM

FC(F)(F)C1(Cl)C(Cl)(c2ccccc2)C1(Cl)c1ccccc1 (stereo not given)
inactive: SR 7.08 µM | U-251 14.7 µM | NCI-H460 15.8 µM | IGROV-1 12.9 µM | 786-0 15.8 µM | KM12 15.6 µM | SK-MEL-5 14 µM | OVCAR-8 18 µM | OVCAR-3 14.9 µM | ACHN 16.1 µM | SW-620 15.7 µM | NCI-H226 13.9 µM | SF-539 16.1 µM | CAKI-1 13 µM | MOLT-4 10.3 µM | LOX IMVI 13.3 µM | SF-295 15.8 µM | EKVX 16.3 µM

CC(=O)NC1CC2Oc3ccc(C)cc3C(C)(O2)C1O (stereo not given)
inactive: U-251 > 100 µM | NCI-H460 > 100 µM | IGROV-1 > 100 µM | 786-0 > 100 µM | KM12 > 100 µM | OVCAR-8 > 100 µM | OVCAR-3 > 100 µM | ACHN > 100 µM | SW-620 > 100 µM | NCI-H226 > 100 µM | SF-539 > 100 µM | NCI-H522 > 100 µM | MOLT-4 > 100 µM | LOX IMVI > 100 µM | SF-295 > 100 µM | EKVX > 100 µM

CCCCS(=O)(=O)Nc1ccc(Nc2c3ccccc3nc3ccccc23)c(OC)c1
inactive: A498 2.05 µM | IGROV-1 5.57 µM | KM12 3.45 µM | SK-MEL-5 5.2 µM | OVCAR-8 2 µM | OVCAR-3 6.98 µM | NCI-H522 5.33 µM | LOX IMVI 1.26 µM | EKVX 1.91 µM
active: U-251 0.773 µM | NCI-H460 0.0863 µM | SW-620 0.675 µM | NCI-H226 0.881 µM | SF-539 1.08 µM | CAKI-1 0.574 µM | MOLT-4 0.0718 µM | SF-295 0.902 µM
